The assay addresses T1, human RXFP1 (Homo sapiens, UniProt Q9HBX9).
T1 construct: expressed in transfected cells
T1 sequence (Q9HBX9 1-757): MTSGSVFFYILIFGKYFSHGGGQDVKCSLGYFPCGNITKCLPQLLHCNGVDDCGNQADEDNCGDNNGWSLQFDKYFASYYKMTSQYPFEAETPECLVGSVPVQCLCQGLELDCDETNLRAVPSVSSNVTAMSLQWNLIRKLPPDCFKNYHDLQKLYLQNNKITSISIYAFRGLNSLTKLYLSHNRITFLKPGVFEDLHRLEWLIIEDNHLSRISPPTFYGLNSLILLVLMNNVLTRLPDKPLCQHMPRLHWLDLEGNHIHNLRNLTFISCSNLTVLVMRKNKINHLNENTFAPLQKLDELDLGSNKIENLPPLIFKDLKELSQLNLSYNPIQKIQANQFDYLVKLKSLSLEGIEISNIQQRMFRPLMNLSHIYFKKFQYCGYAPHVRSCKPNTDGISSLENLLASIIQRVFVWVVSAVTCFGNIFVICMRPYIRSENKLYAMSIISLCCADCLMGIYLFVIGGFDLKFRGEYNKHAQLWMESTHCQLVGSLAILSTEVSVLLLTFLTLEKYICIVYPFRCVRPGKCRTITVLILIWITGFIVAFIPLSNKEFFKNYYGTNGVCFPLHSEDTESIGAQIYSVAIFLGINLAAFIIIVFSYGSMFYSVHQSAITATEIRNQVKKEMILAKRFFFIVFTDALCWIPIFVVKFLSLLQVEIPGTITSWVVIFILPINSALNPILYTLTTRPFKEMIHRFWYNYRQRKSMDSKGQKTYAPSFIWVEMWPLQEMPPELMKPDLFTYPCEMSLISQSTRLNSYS
The assay is described as follows: hRXFP1 HEK293 cAMP assay (HTRF). Format: cell-based. As to conditions: HEK293 cells stably expressing human RXFP1; 30 min at rt; intracellular cAMP by HTRF. In outline: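 HEK293 cells stably expressing human RXFP1 treated 30 min at rt with compound (0.010 nM to 50 μM, 2% DMSO) in HBSS/HEPES buffer with 0.5 mM IBMX. Intracellular cAMP measured by HTRF (665/590 nm ratio) against a cAMP standard curve; potency fitted by 4-parameter logistic.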
(Changes in cAMP serve as a functional read-out for many G protein-coupled receptors.)

Broadly, the EC50 is the concentration giving half of the maximal effect.

`COc1ccc(C2=NOC3CN(C(=O)OC(C)(C)C)CC23)cc1C(=O)Nc1c(C(=O)Nc2ccc(F)c(C(F)(F)F)c2)sc2cc(C(F)(F)F)ccc12` (single isomer, unassigned) [Example 245, tert-butyl 3-(3-((2-((4-fluoro-3-(trifluoromethyl)phenyl)carbamoyl)-6-(trifluoromethyl)benzo[b]thiophen-3-yl)carbamoyl)-4-methoxyphenyl)-3a,4,6,6a-tetrahydro-5H-pyrrolo[3,4-d]isoxazole-5-carboxylate] yielded an EC50 of 463 nM.

`COc1ccc(C(=O)N2CC3(C2)CS(=O)(=O)C3)cc1C(=O)Nc1c(C(=O)Nc2ccc(F)c(C(F)(F)F)c2)sc2cc(C3CC3)ncc12` [Example 29, 6-cyclopropyl-3-(5-(2,2-dioxido-2-thia-6-azaspiro [3.3]heptane-6-carbonyl)-2-methoxybenzamido)-N-(4-fluoro-3-(trifluoromethyl)phenyl) thieno [3,2-c]pyridine-2-carboxamide]: the EC50 came to 1340 nM. Consider `COc1ncc(N2CCS(=O)(=O)CC2)cc1C(=O)Nc1c(C(=O)Nc2ccc(F)c(C(F)(F)F)c2)sc2cc(C(F)(F)F)ccc12` [Example 12, 5-(1,1-dioxidothiomorpholino)-N-(2-((4-fluoro-3-(trifluoromethyl)phenyl)carbamoyl)-6-(trifluoromethyl)benzo[b]thiophen-3-yl)-2-methoxynicotinamide], for which the EC50 worked out at 2130 nM. Turning to `COc1ccc(C2=NOC3CN(C(=O)OC(C)(C)C)CC23)cc1C(=O)Nc1c(C(=O)Nc2ccc(F)c(C(F)(F)F)c2)sc2cc(C(F)(F)F)ccc12` (single isomer, unassigned) [Example 244, tert-butyl 3-(3-((2-((4-fluoro-3-(trifluoromethyl)phenyl)carbamoyl)-6-(trifluoromethyl)benzo[b]thiophen-3-yl)carbamoyl)-4-methoxyphenyl)-3a,4,6,6a-tetrahydro-5H-pyrrolo[3,4-d]isoxazole-5-carboxylate], the EC50 is 360 nM. Next, `COc1ncc(C(=O)NCC2(S(C)(=O)=O)CC2)cc1C(=O)Nc1c(C(=O)Nc2ccc(F)c(C(F)(F)F)c2)sc2cc(C(F)(F)F)ccc12` [Example 171, N3-(2-((4-fluoro-3-(trifluoromethyl)phenyl)carbamoyl)-6-(trifluoromethyl)benzo[b]thiophen-3-yl)-2-methoxy-N5-((1-(methylsulfonyl)cyclopropyl)methyl) pyridine-3,5-dicarboxamide]: 9.1 nM. Turning to `COc1ccc(C2CCCN(C3COC3)C2)cc1C(=O)Nc1c(C(=O)Nc2ccc(F)c(C(F)(F)F)c2)sc2cc(C(F)(F)F)ccc12` (stereo not shown) [Example 97, N-(4-fluoro-3-(trifluoromethyl)phenyl)-3-(2-methoxy-5-(1-(oxetan-3-yl)piperidin-3-yl)benzamido)-6-(trifluoromethyl) benzo[b] thiophene-2-carboxamide], the EC50 worked out at 607 nM. This EC50 is about 67-fold higher than that of the compound before.

Compound `COc1ccc(-c2nc(N3CCOCC3)no2)cc1C(=O)Nc1c(C(=O)Nc2ccc(F)c(C(F)(F)F)c2)sc2cc(C(F)(F)F)ccc12` [Example 277, N-[4-fluoro-3-(trifluoromethyl)phenyl]-3-{2-methoxy-5-[3-(morpholin-4-yl)-1,2,4-oxadiazol-5-yl]benzamido}-6-(trifluoromethyl)-1-benzothiophene-2-carboxamide] came in with an EC50 of 398 nM. The same measure for `COc1ccc(C2CC3(C2)CN(C(=O)CC(C)(C)O)C3)cc1C(=O)Nc1c(C(=O)Nc2ccc(F)c(C(F)(F)F)c2)sc2cc(C(F)(F)F)ccc12` [Example 109, N-(4-fluoro-3-(trifluoromethyl)phenyl)-3-(5-(2-(3-hydroxy-3-methylbutanoyl)-2-azaspiro[3.3]heptan-6-yl)-2-methoxy-benzamido)-6-(trifluoromethyl) benzo[b] thiophene-2-carboxamide]: 509 nM.

In turn, `COc1ccc(C2CC2C(=O)N2CC(S(C)(=O)=O)C2)cc1C(=O)Nc1c(C(=O)Nc2ccc(F)c(C(F)(F)F)c2)sc2cc(C(F)(F)F)ccc12` (single isomer, unassigned) [Example 168, N-[4-fluoro-3-(trifluoromethyl)phenyl]-3-{5-[2-(3-methane-sulfonylazetidine-1-carbonyl)cyclopropyl]-2-methoxy-benzamido}-6-(trifluoromethyl)-1-benzothiophene-2-carboxamide] showed an EC50 of 176 nM. Next, `COc1ccc(C(=O)N(C)C)cc1C(=O)Nc1c(C(=O)Nc2ccc(F)c(C(F)(F)F)c2)sc2cc(C(F)(F)F)ccc12` [Example 220, N3-(2-((4-fluoro-3-(trifluoromethyl)phenyl)carbamoyl)-6-(trifluoromethyl)benzo[b]thiophen-3-yl)-4-methoxy-N1,N1-dimethyl-isophthalamide]: 2530 nM; `COc1ccc(C2CCN(C(=O)C3(C)COC3)C2)cc1C(=O)Nc1c(C(=O)Nc2ccc(F)c(C(F)(F)F)c2)sc2cc(C(F)(F)F)ccc12` (stereo not shown) [Example 135, N-(4-fluoro-3-(trifluoromethyl)phenyl)-3-(2-methoxy-5-(1-(3-methyloxetane-3-carbonyl)pyrrolidin-3-yl)benzamido)-6-(trifluoromethyl) benzo[b] thiophene-2-carboxamide]: 488 nM; `COCCC(=O)N1CCC(c2ccc(OC)c(C(=O)Nc3c(C(=O)Nc4ccc(F)c(C(F)(F)F)c4)sc4cc(C(F)(F)F)ccc34)c2)C1` (stereo not shown) [Example 143, N-(4-fluoro-3-(trifluoromethyl)phenyl)-3-(2-methoxy-5-(1-(3-methoxypropanoyl)pyrrolidin-3-yl)benzamido)-6-(trifluoromethyl) benzo[b] thiophene-2-carboxamide]: 1540 nM. Next, `COCC(=O)N1CCC(c2ccc(OC)c(C(=O)Nc3c(C(=O)Nc4ccc(F)c(C(F)(F)F)c4)sc4cc(C(F)(F)F)ccc34)c2)C1` (stereo not shown) [Example 144, N-(4-fluoro-3-(trifluoromethyl)phenyl)-3-(2-methoxy-5-(1-(2-methoxyacetyl)pyrrolidin-3-yl)benzamido)-6-(trifluoromethyl) benzo[b] thiophene-2-carboxamide]: 1430 nM. With `COc1ccc(CCCO)cc1C(=O)Nc1c(C(=O)NC2CCCC(C(F)(F)F)C2)sc2cc(C(F)(F)F)ccc12` (single isomer, unassigned) [Example 44, 3-(5-(3-hydroxypropyl)-2-methoxybenzamido)-6-(trifluoromethyl)-N-(3-(trifluoromethyl)cyclohexyl) benzo[b]thiophene-2-carboxamide], the EC50 turned out to be 3740 nM. The same measure for `COc1ccc(C#CCO)cc1C(=O)Nc1c(C(=O)Nc2ccc(F)c(C(F)(F)F)c2)sc2cc(C3CC3)ncc12` [Example 202, 6-cyclopropyl-N-(4-fluoro-3-(trifluoromethyl)phenyl)-3-(5-(3-hydroxyprop-1-yn-1-yl)-2-methoxy-benzamido) thieno[3,2-c]pyridine-2-carboxamide]: 1010 nM; for `COc1ccc(C2=NOC3CC(NC(=O)C(C)(C)O)CC23)cc1C(=O)Nc1c(C(=O)Nc2ccc(F)c(C(F)(F)F)c2)sc2cc(C(F)(F)F)ccc12` (single isomer, unassigned) [Example 262, N-[4-fluoro-3-(trifluoromethyl)phenyl]-3-{5-[5-(2-hydroxy-2-methyl-propanamido)-3aH,4H,5H,6H, 6aH-cyclopenta[d] [1,2]oxazol-3-yl]-2-methoxy-benzamido}-6-(trifluoromethyl)-1-benzothiophene-2-carboxamide]: 723 nM. Consider `COc1ccc(C2=NC(C(=O)N3CC(C(C)(C)O)C3)CO2)cc1C(=O)Nc1c(C(=O)Nc2ccc(F)c(C(F)(F)F)c2)sc2cc(C(F)(F)F)ccc12` (stereo not shown) [Example 281, N-[4-fluoro-3-(trifluoromethyl)phenyl]-3-(5-{4-[3-(2-hydroxypropan-2-yl)azetidine-1-carbonyl]-4,5-dihydro-1,3-oxazol-2-yl}-2-methoxy-benzamido)-6-(trifluoromethyl)-1-benzothiophene-2-carboxamide], for which the EC50 is 95.1 nM. Turning to `COc1ccc(C2CCCC(NC3COC3)C2)cc1C(=O)Nc1c(C(=O)Nc2ccc(F)c(C(F)(F)F)c2)sc2cc(C(F)(F)F)ccc12` (single isomer, unassigned) [Example 63, N-(4-fluoro-3-(trifluoromethyl)phenyl)-3-(2-methoxy-5-(3-(oxetan-3-ylamino)cyclohexyl)benzamido)-6-(trifluoromethyl) benzo[b] thiophene-2-carboxamide], a half-maximal effect (EC50) was put at 2060 nM.

As to `COc1ccc(CNCC(C)(C)O)cc1C(=O)Nc1c(C(=O)Nc2ccc(F)c(C(F)(F)F)c2)sc2cc(C(F)(F)F)ccc12` [Example 236, N-(4-fluoro-3-(trifluoromethyl)phenyl)-3-(5-(((2-hydroxy-2-methylpropyl)amino)methyl)-2-methoxy-benzamido)-6-(trifluoromethyl) benzo[b] thiophene-2-carboxamide], the half-maximal effective concentration (EC50) turned out to be 1390 nM.
